The nature of data set [1]: Metabolism stability assay, human liver microsomes. Format: in vitro ADME. The conditions noted are these: for half-life at 1 µM: pH 7.4. Here is the method: Assay 4: Metabolism Stability Assay 1. […] Buffer A: 1 L solution of 100 mM potassium dihydrogen phosphate containing 1 mM EDTA (Sigma, V900157-100G) was prepared. Buffer B: 1 L solution of 100 mM dipotassium hydrogen phosphate containing 1 mM EDTA was prepared. Buffer C: 700 mL of buffer B was taken out and titrated with buffer A to pH 7.4. 2. […] 2.2 20 μl (20 mg/mL) of liver microsomes (Corning Lot. NO. 4133007) stock solution was added to 513.4 μl of buffer C on wet ice. 0.75 mg/mL liver microsomal solution was obtained. 2.3 1.5 μl of each of the above-mentioned compound to be tested and ketanserin solution was added to 498.5 μl of liver microsomal solution (0.7 5 mg/mL) respectively on wet ice. 1.5 μM mixed solution of compound to be tested and 1.5 μM mixed solution of ketanserin were obtained. 2.4 At the time points 0, 5, 15, 30, 45, and 60 min, 30 μl of the mixed solution of compound to be tested and 30 μl of the mixed solution of ketanserin were dispensed into the reaction plate on wet ice, respectively. 2.5 5 mg reduced coenzyme II (Roche, 10621706001) was weighed and dissolved in 1 mL of buffer C. 6 mM reduced coenzyme II solution was obtained. The reduced coenzyme II solution was dispensed into the reaction plate. 2.6 Imipramine was dissolved to give a 10 mM solution. 10 μl of imipramine solution was added to 100 mL of blank acetonitrile to generate the internal reference. 2.7 At 0 min, 135 μL of iced acetonitrile (Merck (Lot. 1778229518)) containing the internal reference was added to each well and then 15 μL of buffer C was added. 2.8 The reaction plate was placed into a 37° C. water bath incubator for 5 min. In the reaction plate, 15 μL of reduced coenzyme II solution was added to each well to initiate the reaction, and the timing was started. At the time points of 5, 15, 30, 45, and 60 min, 135 μL of iced acetonitrile containing the internal reference was added to each well to terminate the reaction. 2.9 The reaction plate was sealed with an aluminum film, placed on a vibration mixer and shaken at 500 rpm for 5 min. The plate was then centrifuged in a centrifuge at 3750 rp for 15 min. 2.10 The sample was diluted with pure water in accordance with the ratio of 1:1 and detected by LC/MS. Half-life: 0.693/K (the slope by plotting based on the incubation time and logarithm of the concentration value) Clearance ratio: (0.693/half-life)*(1/protein concentration (0.5 mg/mL))*(proportional factor) Wherein, the K value and the proportional factor were calculated by those skilled in the art according to the methods described in the prior art and contained in the instructions of the liver microsome product.

In a further data set the target is T1, hNav1.7 (Homo sapiens, UniProt Q15858).
T1 construct: host or cells: CHO
Description: Manual patch clamp experiment hNav1.7 (CHO-hNav1.7 stable cell line). Format: cell-based. The conditions noted are these: for inhibition at 0.1 µM: compound at 100 nM, read-out: Inhibition of Nav1.7 100 nM(%); for inhibition at 1 µM: compound at 1000 nM, read-out: Inhibition of Nav1.7 1000 nM(%). Summed up: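 Whole-cell manual patch clamp on CHO-hNav1.7 or HEK-hNav1.5 cells, extracellular pH 7.3, CsF-based internal. Sodium current elicited by 20 ms steps to −10 mV from either V1/2 holding (with 50 ms −120 mV prepulse) or −120 mV holding, every 10 s; inhibition from current before versus after dosing, IC50 by Hill fit.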

The values below come from patent publication US10815197B2, “N-sulfonyl benzamides as voltage-gated sodium channel inhibitors” (SHANGHAI HAIYAN PHARMACEUTICAL TECHNOLOGY CO., LTD., priority 2016, dated 2020).

T1 sequence (Q15858 whole entry): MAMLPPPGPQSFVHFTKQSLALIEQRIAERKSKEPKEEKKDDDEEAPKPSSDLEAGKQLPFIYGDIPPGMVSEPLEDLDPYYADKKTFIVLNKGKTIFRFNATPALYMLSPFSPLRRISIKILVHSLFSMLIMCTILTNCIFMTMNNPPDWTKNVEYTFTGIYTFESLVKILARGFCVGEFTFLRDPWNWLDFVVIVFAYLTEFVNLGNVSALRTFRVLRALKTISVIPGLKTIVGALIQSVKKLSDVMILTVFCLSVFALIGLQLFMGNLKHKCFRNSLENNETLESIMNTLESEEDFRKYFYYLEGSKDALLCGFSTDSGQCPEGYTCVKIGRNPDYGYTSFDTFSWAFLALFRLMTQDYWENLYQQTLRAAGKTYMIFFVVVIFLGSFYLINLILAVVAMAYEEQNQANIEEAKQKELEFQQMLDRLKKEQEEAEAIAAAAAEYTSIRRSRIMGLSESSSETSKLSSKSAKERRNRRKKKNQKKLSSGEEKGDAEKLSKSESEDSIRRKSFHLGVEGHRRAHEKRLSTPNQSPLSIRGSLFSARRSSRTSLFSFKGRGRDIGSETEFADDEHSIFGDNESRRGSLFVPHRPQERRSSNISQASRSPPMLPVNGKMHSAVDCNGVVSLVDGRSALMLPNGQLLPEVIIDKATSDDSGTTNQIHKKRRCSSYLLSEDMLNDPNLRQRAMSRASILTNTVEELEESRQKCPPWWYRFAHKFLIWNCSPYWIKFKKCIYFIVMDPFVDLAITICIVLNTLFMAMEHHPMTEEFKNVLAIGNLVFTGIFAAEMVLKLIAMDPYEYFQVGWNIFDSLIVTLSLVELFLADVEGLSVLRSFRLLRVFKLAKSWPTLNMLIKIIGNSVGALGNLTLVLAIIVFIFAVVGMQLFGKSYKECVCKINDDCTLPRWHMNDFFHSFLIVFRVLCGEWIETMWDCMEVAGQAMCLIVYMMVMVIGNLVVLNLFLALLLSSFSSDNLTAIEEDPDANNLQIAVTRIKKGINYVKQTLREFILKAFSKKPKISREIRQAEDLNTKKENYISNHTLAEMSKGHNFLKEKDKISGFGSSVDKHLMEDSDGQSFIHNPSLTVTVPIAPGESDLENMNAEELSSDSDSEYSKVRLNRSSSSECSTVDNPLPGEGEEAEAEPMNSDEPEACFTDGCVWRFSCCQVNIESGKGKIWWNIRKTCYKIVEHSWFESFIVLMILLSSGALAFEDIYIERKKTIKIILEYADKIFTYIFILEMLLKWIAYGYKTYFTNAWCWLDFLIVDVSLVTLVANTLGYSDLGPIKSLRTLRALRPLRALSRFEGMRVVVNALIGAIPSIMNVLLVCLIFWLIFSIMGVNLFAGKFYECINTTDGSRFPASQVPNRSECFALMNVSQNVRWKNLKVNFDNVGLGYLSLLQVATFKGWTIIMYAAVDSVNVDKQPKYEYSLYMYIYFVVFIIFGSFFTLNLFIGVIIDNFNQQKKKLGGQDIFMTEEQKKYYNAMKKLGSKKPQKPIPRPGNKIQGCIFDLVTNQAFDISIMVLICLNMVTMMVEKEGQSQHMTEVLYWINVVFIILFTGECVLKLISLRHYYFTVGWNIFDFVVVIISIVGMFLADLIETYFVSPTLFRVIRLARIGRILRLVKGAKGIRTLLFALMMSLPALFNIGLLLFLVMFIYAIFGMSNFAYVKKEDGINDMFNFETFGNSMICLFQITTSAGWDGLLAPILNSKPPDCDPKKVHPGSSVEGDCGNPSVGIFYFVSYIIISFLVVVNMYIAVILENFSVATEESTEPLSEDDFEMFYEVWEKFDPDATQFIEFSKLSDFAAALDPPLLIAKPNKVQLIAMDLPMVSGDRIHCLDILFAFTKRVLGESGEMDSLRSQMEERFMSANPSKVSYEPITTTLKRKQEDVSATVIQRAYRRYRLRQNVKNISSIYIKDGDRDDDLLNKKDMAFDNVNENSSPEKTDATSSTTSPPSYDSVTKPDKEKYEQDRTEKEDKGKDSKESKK

On to `Cc1cc(N2CCN(Cc3cc(F)c(C(=O)NS(=O)(=O)C4CC4)cc3Cl)CC2)ccc1Cl` [Compound Z-164], for which, in data set [1], the “Clearance” value stood at 20.12 mL/min/kg and the half-life at 1 µM was 1.44 h. At hNav1.7, the inhibition at 0.1 µM was determined as 89.7% and the inhibition at 1 µM was 102%. Besides, the IC50 on hNav1.7 (read-out: Nav1.7(IC50/nM)) was found to be 24.6 nM.
With `C[C@@H]1CN(c2ccc(Cl)c(Cl)c2)CCN1Cc1cc(F)c(C(=O)NS(=O)(=O)C2CC2)cc1Cl` [Compound Z-172, (R)-5-Chloro-N-(cyclopropylsulfonyl)-4-((4-(3,4-dichlorophenyl)-2-methylpiperazin-1-yl)methyl)-2-fluorobenzamide], in data set [1], the “Clearance” value was determined as 2.20 mL/min/kg and the half-life at 1 µM came to 13.1 h. Further, at hNav1.7, the inhibition at 0.1 µM turned out to be 89.1% and the inhibition at 1 µM was 97.2%.
As to `O=C(NS(=O)(=O)C1CC1)c1cc(Cl)c(CN2CCN(c3ccc(C4CC4)c(Cl)c3)CC2)cc1F` [Compound Z-173], in data set [1], the “Clearance” value is given as 6.20 mL/min/kg and the half-life at 1 µM turned out to be 4.67 h. Also, on hNav1.7, the inhibition at 0.1 µM worked out at 93.8% and the inhibition at 1 µM turned out to be 100%.
As for `Cc1ccc(N2CCN(Cc3cc(F)c(C(=O)NS(=O)(=O)C4CC4)cc3Cl)CC2)cc1Cl` [Compound Z-177], in data set [1], the “Clearance” value was 0.00 mL/min/kg and the “T1/2(min)” value is given as “∞”. Further, at hNav1.7, the inhibition at 0.1 µM amounted to 89.2% and the inhibition at 1 µM was found to be 98%.
With `CCc1cc(N2CCN(Cc3cc(F)c(C(=O)NS(=O)(=O)C4CC4)cc3Cl)CC2)ccc1Cl` [Compound Z-178], in data set [1], the “Clearance” value was found to be 23.88 mL/min/kg and the half-life at 1 µM is 1.21 h. For the same compound, at hNav1.7, the inhibition at 0.1 µM stood at 89.1% and the inhibition at 1 µM is 98.7%.
Take `CCc1cc(C(=O)NS(=O)(=O)C2CC2)c(F)cc1CN1CCN(c2ccc(OC(F)(F)F)cc2)CC1` [Compound Z-189, N-(cyclopropylsulfonyl)-5-ethyl-2-fluoro-4-((4-(4-(trifluoromethoxy)phenyl)piperazin-1-yl)methyl)benzamide]: in data set [1], the “Clearance” value was 2.74 mL/min/kg and the “T1/2(min)” value is “∞”. Further, at hNav1.7, the inhibition at 0.1 µM was found to be 83.8% and the inhibition at 1 µM is 99.2%.
